This is an account of results in patent US9675627B2, “Dosing regimens for treating and/or preventing cerebral amyloidoses” (Amicus Therapeutics, Inc., priority 2014, dated 2017).

Experiment [1] addresses T1, β-glucocerebrosidase (GCase) (Homo sapiens, UniProt P04062).
T1 construct: wild-type fibroblast (CRL2076) pellets (˜2.5e6 cells/pellet) were lysed; host or cells: wild-type fibroblasts CRL2076, lysate
T1 sequence (P04062 40-536): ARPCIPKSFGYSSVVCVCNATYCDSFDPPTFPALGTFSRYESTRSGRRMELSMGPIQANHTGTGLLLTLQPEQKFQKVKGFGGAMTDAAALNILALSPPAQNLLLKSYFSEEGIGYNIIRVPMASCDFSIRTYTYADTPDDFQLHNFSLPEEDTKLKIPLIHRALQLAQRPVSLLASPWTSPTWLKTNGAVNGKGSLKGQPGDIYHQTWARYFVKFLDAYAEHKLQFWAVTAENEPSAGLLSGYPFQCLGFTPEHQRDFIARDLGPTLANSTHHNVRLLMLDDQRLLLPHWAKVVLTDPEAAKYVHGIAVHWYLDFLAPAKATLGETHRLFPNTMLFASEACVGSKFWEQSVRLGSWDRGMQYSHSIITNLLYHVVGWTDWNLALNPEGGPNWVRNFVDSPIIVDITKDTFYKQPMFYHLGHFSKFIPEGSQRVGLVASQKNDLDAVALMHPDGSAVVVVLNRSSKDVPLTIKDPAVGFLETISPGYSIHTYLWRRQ
The experiment in a line: Selectivity: glucocerebrosidase activity in fibroblast lysate. The class given is biochemical. The settings on record: 10 μM, the highest concentration tested. The source says:
Enzymatic activity measurements were done in duplicate.

Another experiment concerns β-hex. The method, then:
AdDNJ selectivity was assessed by measuring its effect on the enzymatic activity of hexosaminadase (Total Hex, Hex A/S and Hex B), and 3 other lysosomal hydrolases: alpha-galactosidase, beta-galactosidase and glucocerebrosidase. For enzymatic assays, wild-type fibroblast (CRL2076) pellets (˜2.5e6 cells/pellet) were lysed with 200 μl of pH 5 lysis buffer (Phosphate/citrate, 0.25% tauorocholate, 0.1% TX100). Fibroblast lysates were diluted 1:200 in pH 5 reaction buffer (lysis buffer without TX100) containing 2 mM of the appropriate 4-methylumbelliferyl (4-MU) substrate, incubated for 1 h at 37° C. and stopped with 0.5 M sodium carbonate. Released 4MU was measured using a Perkin Elmer Victor 5× fluorescence plate reader (ex355/em460). Measurement of Total Hex activity was carried out using 4-methylumbelliferyl beta-N-acetylglucosaminide (MUG); for Hex A/S activity 4MU-beta-N-acetylglucosamine-6-sulfate (MUGS); Hex B activity was calculated as the difference between Total Hex and Hex A/S activity; for alpha-galactosidase activity […]; for beta-galactosidase activity 4-MU beta-D-galactoside; for glucocerebrosidase activity 4MU beta-D-glucopyranoside. As positive controls for enzymatic inhibition 100 μM of the following compounds were used: for alpha-galactosidase, 1-deoxygalactonojirimycin; for beta-galactosidase, N-Butyl-1-deoxygalactonojirimycin; for glucocerebrosidase, isofagamine. For beta-hexosaminadase enhancement assays, fibroblasts were exposed to 0, 95, 390 and 780 nM of AdDNJ for 5 days followed by beta-hexosamindase activity measurement. Enzymatic activity measurements were done in duplicate.
5-week-old C57BL/J6 mice (n=5 mice/group, Taconic Farms, Germantown, N.Y.) were administered vehicle (water) or AdDNJ (30, 100 or 300 mg/kg) via oral gavage every day for 14 days. On day 15 mice were euthanized and brain/plasma collected for analysis. For single dose PK studies, 5-week-old C57BL/J6 mice (n=5 mice/group, Taconic Farms, Germantown, N.Y.) received a single 100 mg/kg dose (oral gavage) of AdDNJ and groups euthanized at 0.5, 1, 2, 4, 8, 16, 24 and 48 hours post dose for brain and plasma analysis. Whole brain tissue (10-15 mg) was homogenized in 1 mL of pH 5 lysis buffer for measuring beta-hexosaminidase activity as described above. AdDNJ levels were measured in plasma and brain samples using LC-MS/MS.

Experiment [2] deals with GM1, GM2, and GM3 ganglioside levels. The experiment in a line: TLC analysis of whole brain ganglioside levels. The settings on record: 3 months of 100 mg/kg. The class given is in vivo, Dutch APP^E693Q transgenic mice. The method, then:
The generation and characterization of Dutch APPE693Q mice transgenic mice is described in Gandy, S., et al. Days to criterion as an indicator of toxicity associated with human Alzheimer amyloid-beta oligomers. Annals of neurology 68, 220-230 (2010). 3-month-old male Dutch APP^E693Q mice transgenic mice were orally gavaged 5 days/week with either vehicle (water) (n=15) or 3, 10, 30 or 100 mg/kg AdDNJ for 3 months (n=13). All animal studies were approved and conducted in accordance with the Institutional Animal Care and Usage Committee. Mice were kept in a pathogen-free environment, on a 12-hour light/dark cycle and given ad libitum access to food and water. At 6 month of age treatment groups, and a 3-month-old untreated baseline group (n=15), were cognitively assessed in the NOR, EPM and FC tests. 48 hours following the final dose mice were perfused with ice-cold 1×PBS. The brain was removed and dissected into two hemispheres. One half was snap-frozen on dry ice and stored at −80° C. for biochemistry; the other half was post-fixed in 4% paraformaldehyde then sagittally sectioned on a vibratome into 30 μm sections and stored at 4° C. in storage buffer until histological analyses.

Where [3] appears, read: daily gavage 14 days at 30, 100 and 300 mg/kg.

Molecules are shown by their SMILES.

In the case of `CC(=O)NC1CNC(CO)[C@@H](O)C1O` (stereo partly drawn) [AdDNJ, 2-acetamido-1,2-dideoxynojirimycin], the “inhibition of β-glucocerebrosidase (GCase)” value in experiment [1] is listed as “did not inhibit”. Moreover, the “time of maximum increase in β-hex levels” value in the experiment with β-hex (daily gavage 30, 100, 300 mg/kg) is reported as about 5 days. In addition, in the experiment with β-hex (setting [3]), the “GM2 levels in whole brain extracts” value is reported as “without increasing GM2 levels” and the “brain β-hex levels” value is “dose-dependent increase”. For the same molecule, the “half-life of elevated β-hex levels in the brain” value in the experiment with β-hex (data not shown) is about 48 h. Also, the “ganglioside levels in whole brain extracts (TLC)” value in experiment [2] is given as “did not reveal any changes in ganglioside levels”.
